Experiment [1] has as its target T1, N-terminal His-tagged TYK2 pseudokinase domain (Homo sapiens, UniProt P29597).
T1 construct: the N-terminal His-tagged TYK2 pseudokinase domain; His (N); purchased Pharmaron
The experiment can be described thus: TYK2 JH2 domain SPA binding assay. The conditions noted are these: displacement of H3 probe (20 nM), 30 min room temperature; class symbols. The method, then:
TYK2 JH2 Domain Binding Assay
After incubating at room temperature for 30 min, the inhibition was calculated by the displacement of [3H] 3 binding as determined by scintillation counting. Dose-response curves were generated to determine the concentration required to inhibit H3 probe binding by […] (IC50).

The subject of experiment [2] is IL-23 induced STAT3 in HEK-Blue™ IL-23 cells. The experiment can be described thus: IL-23 induced STAT3 QUANTI-Blue reporter assay in HEK-Blue IL-23 cells. As to conditions: HEK-Blue IL-23, HEK-Blue IL-23 cells, IL-23 0.1 ng/mL, SEAP levels; class symbols; read-out: IL23 reporter assay (IC50 nM). It counts as cell-based. A digest of the protocol: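 HEK-Blue IL-23 cells, 5000/well, preincubated with compound 1 h at 37 °C, then stimulated overnight with IL-23 at 0.1 ng/mL final. Supernatant mixed with QUANTI-Blue for 2 h at 37 °C and secreted SEAP read out.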
A general note: A reporter such as luciferase makes a cellular process visible.

The structures appear in SMILES notation.

We go through 38 compounds from patent publication US20240335443A1, “IMIDAZOLOPYRIDAZINE OR PYRAZOLOPYRIMIDINE COMPOUNDS AND COMPOSITIONS” (Anrui Biomedical Technology (Guangzhou) Co., Ltd., priority 2021, published 2024).

T1 sequence (P29597 589-875 limits assumed): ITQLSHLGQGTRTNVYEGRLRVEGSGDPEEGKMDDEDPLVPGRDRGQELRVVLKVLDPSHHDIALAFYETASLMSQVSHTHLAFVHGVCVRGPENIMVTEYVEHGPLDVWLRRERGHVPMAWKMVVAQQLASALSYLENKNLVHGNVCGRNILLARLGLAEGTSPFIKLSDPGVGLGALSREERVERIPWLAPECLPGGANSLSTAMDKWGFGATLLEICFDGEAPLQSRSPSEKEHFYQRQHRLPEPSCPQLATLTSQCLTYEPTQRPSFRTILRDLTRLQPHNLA

For orientation: IC50 means the midpoint of a concentration-inhibition curve. `CNc1cc(Nc2cccn(-c3ccccn3)c2=O)nc2c(C(=O)NC3CCn4ncnc43)cnn12` (stereo not shown) [Compound 17, N-(6,7-dihydro-5H-pyrrolo[1,2-b][1,2,4]triazol-7-yl)-7-(methylamino)-5-((2-oxo-2H-[1,2′-bipyridin]-3-yl)amino)pyrazolo[1,5-a]pyrimidine-3-carboxamide]: the IC50 in experiment [1] and in experiment [2] was 10 to 100 nM each time.
Consider `CNc1cc(Nc2cccn(-c3ccccn3)c2=O)nc2c(C(=O)NC3CCn4ccnc43)cnn12` (stereo not shown) [Compound 18, N-(6,7-dihydro-5H-pyrrolo[1,2-a]imidazol-7-yl)-7-(methylamino)-5-((2-oxo-2H-[1,2′-bipyridin]-3-yl)amino)pyrazolo[1,5-a]pyrimidine-3-carboxamide], for which the IC50 in experiment [1] and in experiment [2] was less than 10 nM throughout.
As for `[2H]C([2H])([2H])Nc1cc(Nc2cccn([C@H]3C[C@H](OC([2H])([2H])[2H])C3)c2=O)nc2c(C(=O)N[C@@H]3C[C@H]4CCO[C@H]43)cnn12` [Compound 19, N-((1R,5S,7R)-2-oxabicyclo[3.2.0]heptan-7-yl)-5-((1-((1r,3r)-3-(methoxy-d3)cyclobutyl)-2-oxo-1,2-dihydropyridin-3-yl)amino)-7-((methyl-d3)amino)pyrazolo[1,5-a]pyrimidine-3-carboxamide], the IC50 in experiment [1] and in experiment [2] was 10 to 100 nM throughout.
As to `CNc1cc(Nc2cccc3c2OCCC3)nn2c(C(=O)NCc3ncco3)cnc12` [Compound 20], the IC50 in experiment [1] and in experiment [2] was less than 10 nM each time.
Regarding `CNc1cc(Nc2cccc3c2OCCC3)nn2c(C(=O)NCc3nccn3C)cnc12` [Compound 21], the concentration for half-maximal inhibition (IC50) in experiment [1] was 10 to 100 nM; in experiment [2], less than 10 nM.
For `CNc1cc(Nc2cccn(-c3ccccc3F)c2=O)nn2c(C(=O)N[C@@H]3C[C@H]4CCO[C@H]43)cnc12` [Compound 44], the IC50 in experiment [1] is 10 to 100 nM; in experiment [2], less than 10 nM.
As for `CNc1cc(Nc2cccn(-c3ccccc3F)c2=O)nn2c(C(=O)N[C@H]3C[C@@H]4CCO[C@@H]43)cnc12` [Compound 45], the IC50 in experiment [1] was 100 to 1000 nM; in experiment [2], no less than 1000 nM.
For the compound `CNc1cc(Nc2cccn(-c3ccccc3)c2=O)nn2c(C(=O)N[C@@H]3C[C@H]4CCO[C@H]43)cnc12` [Compound 46], the values for the IC50 in experiment [1] and in experiment [2] were 10 to 100 nM and less than 10 nM, respectively.
For `[2H]C([2H])([2H])Nc1cc(Nc2cccn(-c3ccn(C)n3)c2=O)nn2c(C(=O)N[C@@H]3C[C@H]4CCO[C@H]43)cnc12` [Compound 52] the same measures were less than 10 nM and less than 10 nM.
`[2H]C([2H])([2H])Nc1cc(Nc2cccn(-c3ccn(C([2H])([2H])[2H])n3)c2=O)nn2c(C(=O)N[C@@H]3C[C@H]4CCO[C@H]43)cnc12` [Compound 53]: the IC50 in experiment [1] was 10 to 100 nM; in experiment [2], less than 10 nM.
As for `CNc1cc(Nc2cccn(-c3nn(C)cc3F)c2=O)nn2c(C(=O)N[C@@H]3C[C@H]4CCO[C@H]43)cnc12` [Compound 54], the concentration for half-maximal inhibition (IC50) in experiment [1] is 10 to 100 nM; in experiment [2], less than 10 nM.
As to `CNc1cc(Nc2cccn(-c3cc(C)n(C)n3)c2=O)nn2c(C(=O)N[C@@H]3C[C@H]4CCO[C@H]43)cnc12` [Compound 55], the IC50 in experiment [1] and in experiment [2] was 10 to 100 nM throughout.
Regarding `[2H]C([2H])([2H])Nc1cc(Nc2cccn(-c3ccn(C)n3)c2=O)nn2c(C(=O)N[C@@H]3C[C@@H]3F)cnc12` [Compound 57], the IC50 in experiment [1] and in experiment [2] was 10 to 100 nM each time.
As for `[2H]C([2H])([2H])n1ccc(-n2cccc(Nc3cc(NC)c4ncc(C(=O)N[C@@H]5C[C@@H]5F)n4n3)c2=O)n1` [Compound 58], the IC50 in experiment [1] and in experiment [2] was 10 to 100 nM each time.
For the compound `[2H]C([2H])([2H])Nc1cc(Nc2cccn(-c3ccn(C([2H])([2H])[2H])n3)c2=O)nn2c(C(=O)N[C@@H]3C[C@@H]3F)cnc12` [Compound 59], the IC50 in experiment [1] is 10 to 100 nM; in experiment [2], less than 10 nM.
As for `CNc1cc(Nc2cccn([C@H]3CC[C@H](OC)CC3)c2=O)nn2c(C(=O)N[C@@H]3C[C@H]4CCO[C@H]43)cnc12` [Compound 63], the IC50 in experiment [1] and in experiment [2] was less than 10 nM each time.
Take `[2H]C([2H])([2H])Nc1cc(Nc2cccn([C@H]3CC[C@@H](OC([2H])([2H])[2H])CC3)c2=O)nn2c(C(=O)N[C@@H]3C[C@H]4CCO[C@H]43)cnc12` [Compound 64]: the IC50 in experiment [1] and in experiment [2] was 10 to 100 nM each time.
For the compound `CNc1cc(Nc2cccn([C@H]3CCCOC3)c2=O)nn2c(C(=O)N[C@@H]3C[C@H]4CCO[C@H]43)cnc12` [Compound 65], the IC50 in experiment [1] was 10 to 100 nM; in experiment [2], less than 10 nM.
For `CNc1cc(Nc2cccn(C3CCOCC3)c2=O)nn2c(C(=O)N[C@@H]3C[C@H]4CCO[C@H]43)cnc12` [Compound 66] the same measures were 10 to 100 nM and less than 10 nM.
In the case of `[2H]C([2H])([2H])Nc1cc(Nc2cccn([C@H]3CC[C@H](OC([2H])([2H])[2H])CC3)c2=O)nn2c(C(=O)N[C@@H]3C[C@@H]3F)cnc12` [Compound 69], the IC50 in experiment [1] was 10 to 100 nM; in experiment [2], less than 10 nM.
Consider `CNc1cc(Nc2cccn([C@H]3CC[C@@H](OC)CC3)c2=O)nn2c(C(=O)N[C@@H]3C[C@@H]3F)cnc12` [Compound 70], for which the IC50 in experiment [1] and in experiment [2] was 10 to 100 nM throughout.
On to `[2H]C([2H])([2H])Nc1cc(Nc2cccn([C@H]3CC[C@@H](OC([2H])([2H])[2H])CC3)c2=O)nn2c(C(=O)N[C@@H]3C[C@@H]3F)cnc12` [Compound 72], for which the figures for the IC50 in experiment [1] and in experiment [2] were 10 to 100 nM and less than 10 nM, respectively.
On to `CNc1cc(Nc2cccn(C3CCC4(CC3)COC4)c2=O)nn2c(C(=O)N[C@@H]3C[C@@H]3F)cnc12` [Compound 73], for which the IC50 in experiment [1] was 10 to 100 nM; in experiment [2], less than 10 nM.
For `CNc1cc(Nc2cccn(C3C[C@H]4CC[C@@H](C3)O4)c2=O)nc2c(C(=O)N[C@@H]3C[C@H]4CCO[C@H]43)cnn12` (stereo partly shown) [Compound 76] the same measures were 10 to 100 nM and 10 to 100 nM.
As for `[2H]C([2H])([2H])Nc1cc(Nc2cccn(C3C[C@H]4CC[C@@H](C3)O4)c2=O)nn2c(C(=O)N[C@@H]3C[C@@H]3F)cnc12` (stereo partly shown) [Compound 80], the IC50 in experiment [1] and in experiment [2] was 10 to 100 nM in each case.
Regarding `CNc1cc(Nc2cccn(C3C[C@H]4CC[C@@H](C3)O4)c2=O)nc2c(C(=O)N[C@@H]3C[C@@H]3F)cnn12` (stereo partly shown) [Compound 81], the IC50 in experiment [1] and in experiment [2] was 10 to 100 nM in each case.
As for `CNc1cc(Nc2cccn([C@H]3C[C@H](OC)C3)c2=O)nn2c(C(=O)N[C@@H]3C[C@H]4CCO[C@H]43)cnc12` [Compound 82], the IC50 is 10 to 100 nM in experiment [1] and less than 10 nM in experiment [2].
For `[2H]C([2H])([2H])O[C@H]1C[C@H](n2cccc(Nc3cc(NC)c4ncc(C(=O)N[C@@H]5C[C@H]6CCO[C@H]65)n4n3)c2=O)C1` [Compound 83], in that order: 10 to 100 nM and 10 to 100 nM.
With `[2H]C([2H])([2H])Nc1cc(Nc2cccn([C@H]3C[C@H](OC([2H])([2H])[2H])C3)c2=O)nn2c(C(=O)N[C@@H]3C[C@H]4CCO[C@H]43)cnc12` [Compound 84], the IC50 in experiment [1] and in experiment [2] was 10 to 100 nM throughout.
In the case of `CNc1cc(Nc2cccn([C@H]3C[C@@H](OC)C3)c2=O)nn2c(C(=O)N[C@@H]3C[C@H]4CCO[C@H]43)cnc12` [Compound 85], the IC50 in experiment [1] and in experiment [2] was 10 to 100 nM throughout.
For `[2H]C([2H])([2H])O[C@H]1C[C@@H](n2cccc(Nc3cc(NC)c4ncc(C(=O)N[C@@H]5C[C@H]6CCO[C@H]65)n4n3)c2=O)C1` [Compound 86], the IC50 in experiment [1] and in experiment [2] was 10 to 100 nM each time.
On to `[2H]C([2H])([2H])Nc1cc(Nc2cccn([C@H]3C[C@@H](OC([2H])([2H])[2H])C3)c2=O)nn2c(C(=O)N[C@@H]3C[C@H]4CCO[C@H]43)cnc12` [Compound 87], for which the IC50 in experiment [1] and in experiment [2] was 10 to 100 nM in each case.
As to `[2H]C([2H])([2H])Nc1cc(Nc2cccn([C@H]3C[C@H](OC(F)(F)F)C3)c2=O)nn2c(C(=O)N[C@@H]3C[C@H]4CCO[C@H]43)cnc12` [Compound 89], the IC50 in experiment [1] and in experiment [2] was 10 to 100 nM in each case.
For the compound `CNc1cc(Nc2cccn([C@H]3C[C@H](F)C3)c2=O)nn2c(C(=O)N[C@@H]3C[C@H]4CCO[C@H]43)cnc12` [Compound 90], the half-inhibitory concentration (IC50) in experiment [1] and in experiment [2] was 10 to 100 nM throughout.
In the case of `CNc1cc(Nc2cccn([C@H]3C[C@H](OC)C3)c2=O)nn2c(C(=O)N[C@@H]3C[C@@H]3F)cnc12` [Compound 99], the IC50 in experiment [1] and in experiment [2] was 10 to 100 nM throughout.
Take `[2H]C([2H])([2H])Nc1cc(Nc2cccn([C@H]3C[C@H](OC([2H])([2H])[2H])C3)c2=O)nc2c(C(=O)N[C@@H]3C[C@@H]3F)cnn12` [Compound 100]: the IC50 in experiment [1] and in experiment [2] was 10 to 100 nM each time.
For the compound `[2H]C([2H])([2H])Nc1cc(Nc2cccn([C@@H]3C[C@H]4CCO[C@H]43)c2=O)nn2c(C(=O)N[C@@H]3C[C@@H]3F)cnc12` [Compound 106], the IC50 in experiment [1] and in experiment [2] was less than 10 nM in each case.
Turning to `CNc1cc(Nc2cccn(CC3CCCO3)c2=O)nn2c(C(=O)N[C@@H]3C[C@@H]3F)cnc12` (stereo partly shown) [Compound 107], the IC50 in experiment [1] and in experiment [2] was 10 to 100 nM each time.
